Assay results taken from EP0417209B1, “COMPOSITIONS AND METHODS FOR ADMINISTERING […] ACTIVE COMPOUNDS” (priority 1988, dated 1990).
Where “and” joins values, the source holds several entries; their conditions need not be identical. Identical values can stand only once. One block for each compound: values may come before it.

Tests used:
[1] = cited from earlier work
[2] = design: species or system Wistar derived albino rats; settings: rat, in vivo
Procedure: Sixteen Wistar derived albino rats, eight male (242-333 gms) and eight female (295-345 gms) were acclimated for seven days prior to beginning this study. During this period the rats were fed Purina(R) Rodent Chow, watered ad lib and housed in self-flushing stainless-steel cages.
The rats were randomly assigned to two groups of eight each (4 males and 4 females) and placed in metabolism cages. […] Blood samples were taken at 1, 2, 3 and 4 hours after dosing for serum salicylate analysis. Urine was collected if produced at the same time periods for salicylate analysis also. In an effort to maximize urine output the rats were given additional water at 1, 2, 3 and 4 hours by gavage (3 ml).
Blood and urine were collected and analyzed according to the method of Natleson. [Natelson, S. Techniques of Clinical Chemistry, ed. 3. p. 649, Charles C. Thomas, Pub. (1971)]. The study was terminated after the 4 hour collection time.
All statistics were calculated via Statistical Analysis System (SAS Institute, Inc., Box 8000, Cary, NC, 27511) software. The ANOVA (repeated measures model) procedure was used to determine differences in salicylate concentrations between groups.
The average values (X) and standard deviation (SD) for each group and time are given. Figure 1 is a histogram presentation of the data in Table 2. The significance level (P) of the differences between the two groups at each sample time in salicylate concentration in serum are given next to each set of histograms. Figure 2 is the serum salicylate profile over time for both groups of rats, standard deviation bars are included. The initial uptake rate (gastrointestinal) is calculated from the linearized curve in the first hour after dosing. Urine salicylate data is not presented in detail but will be discussed below. The groups are not broken down into male and female because there is no significant difference in the serum salicylate related to the sex of the animal.

[3] = design: species or system men; settings: in vivo
From the text: The following example describes clinical tests comparing the product of Example 1 (test material) with L-ascorbic acid and citric acid (placebo), measuring intra-cellular and serum ascorbate levels, urinary ascorbate output and urinary oxalate excretion at various times after ingestion of standard doses of the test, L-ascorbic acid and placebo.
Twelve men, ages 27 to 45, were studied.
All were instructed that they should be on a low Vitamin C diet for one week prior to the study (no citrus products and no large amounts of green leafy vegetables).
Following overnight fast, blood and 24-hour urine samples were taken. White blood cell and 24-hour urinary ascorbate and oxalate levels were determined and correlated with serum ascorbate levels.
The 12 men were divided into three groups, and were given the following supplements: • (a) Test Group: 4000 MG* per day of the product Ex. 1. • (b) Ascorbate Group: 3000 MG of L-ascorbic per day. • (c) Citric Acid Group: 3000 MG of citric acid per day. *4000 MG is equivalent in ascorbate (iodine test) to 3000MG L-ascorbic acid.
All 12 continued on a low Vitamin C diet. Blood samples were taken at 0, 4, 8 and 24 hours after morning ingestion of the designated supplements. Urinary 24-hour ascorbate and oxalate levels were determined.
After a wash-out period (varying from two days to several days, due to job situation of participants), the groups were switched to another supplement, as follows: • (a) Test group to citrate group. • (b) Citrate group to ascorbate group. • (c) Ascorbate group to test group.
Supplements were taken at the same level (4000 MG of Ex. 1 product, 3000 MG of L-ascorbic and 3000 MG of citric acid) by all three groups. Blood samples were again drawn at 0, 4, 8 and 24 hours from time of ingestion. A 24-hour urine was also collected by all 12 participants at the end of the period. Again, all specimens were analyzed for their respective concentration of ascorbate and oxalate levels.
The analytical procedures utilized are described in: Clinical Chemistry, Principles and Techniques, edited by Richard J. Henry, Donald D. Cannon and James W. Windelman, Harper and Row, 1974 p. 1393-1398.
Standard Method of Clinical Chemistry, J. S. Roe, edited by Seligson D. New York, Academic Press, 1961, Vo. 3, p. 35.
In the quantitation of 24-hour urine oxalate, an aliquot of urine is shaken with an adsorbent which selectively binds the oxalate. The extracted urine is discarded and the oxalate is eluted from the adsorbent with dilute alkali.
Oxalate is oxidized to hydrogen peroxide and carbon dioxide by oxalate oxidase. The hydrogen peroxide reacts with 3-methyl-2-benzothiozolinone hydrazone (MBTH) and 3 (dimethylamino) benzoic acid (DMAB) in the presence of peroxidase to yield an indamine dye with a maximum absorbance at 590 NM.

[4] = Plasma Piroxicam after gavage, 3-day calcium threonate pretreatment (Example 13); type: in vivo, Wistar derived Albino rats; settings: rat, po, 0.6 mg/kg, read-out: Piroxicam Plasma Concentration, average (X)
Procedure: Ten Wistar derived Albino rats, male (420-456 gms), were acclimated for seven days prior to beginning the study. During this period the rats were fed Purina(R) Rodent Chow, watered ad lib and housed in self-flushing stainless-steel cages.
The rats were randomly assigned to two groups of five each. Group A rats were gavaged daily for 3 days with 1.0 ml distilled water prior to beginning the study. Group AM rats were gavaged daily with 15 mg/kg/ml of calcium threonate for 3 days also. Threonate dosages were corrected for increases in body weights daily in insure the 15 mg/kg dose was maintained.
On day 4 the Group A rats were gavaged with Piroxicam at 0.6 mg/kg and group AM rats with 0.6 mg/kg Piroxicam and 15 mg/kg threonate. Plasma samples were taken at 4, 6, 8 and 10 hrs. post-dosing for plasma Piroxicam analysis.
Selective HPLC was used to analyze Piroxicam. The data was analyzed statistically by the SAS procedure. The ANOVA repeated measures procedure was used to determine differences in plasma Piroxicam concentration between groups.
The average (X) values for each group at each time period are given.

[5] = Plasma Piroxicam after gavage, combined administration with calcium threonate (Example 12); type: in vivo, Wistar derived albino rats; settings: 0.6 mg/kg; for Plasma Piroxicam Concentration: listed as U.S.P. piroxicam; for concentration at 4 h: 4 hours after dosing
Procedure: Ten Wistar derived albino rats, male (375-411 gms), were acclimated for seven days prior to beginning the study. During this period the rats were fed Purina(R) Rodent Chow, watered ad lib and housed in self-flushing stainless-steel cages.
The rats were randomly assigned to two groups of five each and placed in Nalgene(R) cages. Group A received U.S.P. Piroxicam at 0.6 mg/kg, and Group AM received U.S.P. Piroxicam at 0.6 mg/kg plus calcium threonate at 15 mg/kg by gavage. Plasma samples were taken at 4, 6, 8 and 10 hours after dosing for plasma Piroxicam analysis.
Selective HPLC was used to analyze Piroxicam and the data analyzed via SAS. The ANOVA repeated measures procedure was used to determine differences in plasma Piroxicam concentrations between groups.
The average values (X) for each group and time are given. Figure 3 is the plasma profile of the data in Table 4.

movement disorders = test: Supplementation of dogs with chronic movement disorders; clinical evaluation and owner's report; type: in vivo; settings: given orally
Procedure: One hundred-eighty dogs of varying breed and age were fed 3 x 30 mgs/kg of the product of Example 1. All of these dogs suffered movement disorders.
The effect was measured seven days after supplementation and then again after six weeks. Last evaluation was after more than six months.
A number of different ailments were treated, both acute and chronic. In acute illness where symptoms are rapidly changing, one finds it hard to distinguish between the effect of supplementation and other factors.
Animals with the following chronic ailments were chosen: joint-injuries with secondary permanent changes, arthrosis, spondylosis, hip dysplasia, older dico-prolapse with secondary permanent changes, muscle-atrophy as a result of funtio laesa and senile wear-changes in support and motion-systems.
One hundred dogs qualify under the above criteria. Age or breed was not taken into consideration in this report.

Procedure for 3T3 mouse fibroblasts: A control group was incubated with Ringer's as a control.
(5 ul of 14C-L ascorbic acid was added, 10.0 mCi/mmol, 0.05 mCi/ml).
The flasks were then washed with 4 ml HBSS(-) and then were trypsinized with 0.1 ml trypsin-EDTA for 5 minutes. The cells were resuspended in 4 ml ice cold HBSS(-) to stop the enzymatic reaction. The cells were centrifuged for 10 minutes at 1000 G. The cells were then washed and resuspended in 4 ml HBSS(-). The cells were again centrifuged (10 min, 1000G), resuspended in 1.0 ml distilled H2O and sonicated for 90 seconds.
0.5 ml of each sample was used for counting ^14C and 0.5 ml was used for protein analysis using the Bradford method.

SMILES: C=CCOc1ccc(CC(=O)O)cc1Cl [Alclofenac]
pKa [1]: 4.6

elimination rate [2]: 1.30 mg/h
uptake rate [2]: 4.40 mg/h
Urine salicylate ([2]; 60 min): approximately 9.1 mg%
SMILES: CC(=O)Oc1ccccc1C(=O)O [Aspirin]

SMILES: O=C(O)[C@H](O)[C@@H](O)CO [Calcium-L-Threonate, calcium L-threonate]
uptake of 14C into the cells, average (3T3 mouse fibroblasts; average of three flasks): 1.19 DPM/ug
Uptake Ratio, average (3T3 mouse fibroblasts; average of three flasks, relative to Ringer's control): 1.86
uptake of 14C into the cells (3T3 mouse fibroblasts; single flask, 100 mg% calcium L-threonate 1 hour at 37°C, then 1.25 mg% ascorbic acid 20 minutes): 0.835 DPM/ug and 1.341 DPM/ug and 1.384 DPM/ug
Uptake Ratio (3T3 mouse fibroblasts; single flask, relative to average Ringer's control): 1.30 and 2.09 and 2.16

SMILES: CO[C@@]1(NC(=O)Cc2cccs2)C(=O)N2C(C(=O)O)=C(COC(N)=O)CS[C@@H]21 [Cefoxitin]
pKa [1]: 2.2

7th Day Urine Ascorbate [3]: 459 MG/24 Hour
7th Day Urine Ascorbate % Change [3]: 4583%
24 Hour Urine Ascorbate [3]: 314.5 MG/24 Hour
24 Hour Urine Ascorbate % Change [3]: 2760.6%
24th Hour Urine Oxalate [3]: 63.8 MG/24 Hour
24th Hour Urine Oxalate % Change [3]: 162%
SMILES: O=C1O[C@H]([C@@H](O)CO)C(O)=C1O [L-ascorbic, L-ascorbic acid]

SMILES: Cc1ccc(Cl)c(Nc2ccccc2C(=O)O)c1Cl [Meclofenamic Acid]
pKa [1]: 4.0

concentration at 4 h ([4]; 4 hrs post-dosing on day 4, group average): 1300 ng/mL
concentration at 6 h ([4]; 6 hrs post-dosing on day 4, group average): 1300 ng/mL
concentration at 8 h ([4]; 8 hrs post-dosing on day 4, group average): 1100 ng/mL
concentration at 10 h ([4]; 10 hrs post-dosing on day 4, group average): 900 ng/mL
Plasma Piroxicam Concentration ([5]; 8 hours after dosing, individual rat, 480 min): 1.9 µg/mL and 1.8 µg/mL and 1.6 µg/mL
Plasma Piroxicam Concentration ([5]; 10 hours after dosing, individual rat, 600 min): 1.4 µg/mL and 1.7 µg/mL and 2.0 µg/mL
concentration at 4 h ([5]; rat, plasma, po, group average, read-out: Plasma Piroxicam Concentration, average (X)): 1800 ng/mL
concentration at 4 h ([5]; rat, plasma, po, piroxicam 0.6 mg/kg (AM: plus threonate 15 mg/kg), individual rat, read-out: Plasma Piroxicam Concentration): 2200 ng/mL
concentration at 6 h ([5]; rat, plasma, po, 6 hours after dosing, group average, read-out: Plasma Piroxicam Concentration, average (X)): 1700 ng/mL
concentration at 8 h ([5]; rat, plasma, po, 8 hours after dosing, group average, read-out: Plasma Piroxicam Concentration, average (X)): 1800 ng/mL
concentration at 8 h ([5]; rat, plasma, po, 8 hours after dosing, individual rat, read-out: Plasma Piroxicam Concentration): 1700 ng/mL
concentration at 10 h ([5]; rat, plasma, po, 10 hours after dosing, group average, read-out: Plasma Piroxicam Concentration, average (X)): 1800 ng/mL
concentration at 10 h ([5]; rat, plasma, po, 10 hours after dosing, individual rat, read-out: Plasma Piroxicam Concentration): 2000 ng/mL
SMILES: CN1C(C(=O)Nc2ccccn2)=C(O)c2ccccc2S1(=O)=O [Prioxicam]

SMILES: CC1=C(CC(=O)O)c2cc(F)ccc2/C1=C\c1ccc([S+](C)[O-])cc1 (stereo not shown) [Sulindac]
pKa [1]: 4.7

SMILES: O=C1O[C@H]([C@@H](O)CO)C(O)=C1O [calcium-ascorbate]
symptomatic relief of chronic deforming changes in the joint and skeleton system (movement disorders): Neither calcium-ascorbate alone nor L-ascorbic acid alone give such relief
